Molecular target: T1, F508delCFTR (Homo sapiens, UniProt P13569, DEL508-508)
T1 construct: expressed in transfected cells; host or cells: CFBE41o- (human lung derived epithelial cell line), doxycycline-inducible
Assay: Cell Surface Expression-Horse Radish Peroxidase (CSE-HRP) assay
Assay type: cell-based
Conditions: CFBE41o-F508delCFTR-HRP cells; for EC50: F508delCFTR cell surface expression, luminescence, 18-24 hours at 33° C., highest concentration 20 μM; for Maximum % activity: maximum at any tested concentration, normalized to on-plate positive control (3 μM)
Source text: Cell Surface Expression-Horse Radish Peroxidase (CSE-HRP) Assay:
A cellular assay for measuring the F508delCFTR cell surface expression after correction with test compounds was developed in human lung derived epithelial cell line (CFBE41o-) (Veit G et al, (2012) Mol Biol Cell. 23(21): 4188-4202). This was achieved by expressing the F508delCFTR mutation along with a horseradish peroxidase (HRP) in the fourth exofacial loop and then measuring the HRP activity using luminescence readout from these cells, CFBE41o-F508delCFTR-HRP, that were incubated overnight with the test corrector compounds. Briefly, for this primary assay, the CFBE41o-F508delCFTR-HRP cells were plated in 384-well plates (Greiner Bio-one; Cat 781080) at 4,000 cells/well along with 0.5 μg/mL doxycycline to induce the F508delCFTR-HRP expression and further incubated at 37° C., 5% CO2 for 72 hours. The test compounds were then added at the required concentrations and further incubated for 18-24 hours at 33° C. The highest concentration tested was 20 μM with an 8-point concentration response curve using a 3-fold dilution. Three replicate plates were run to determine one EC50. All plates contained negative controls (dimethyl sulfoxide, DMSO) and positive controls (3 μM of 3-[(2R,4R)-4-({[1-(2,2-difluoro-1,3-benzodioxol-5-yl)cyclopropyl]carbonyl}amino)-7-methoxy-3,4-dihydro-2H-chromen-2-yl]benzoic acid) as well as on-plate concentration response of the positive control. Post incubation, the plates were washed 5× times with Dulbecco's phosphate buffered saline (DPBS), followed by the addition of the HRP substrate, luminol (50 μL), and measuring the HRP activity using luminescence readout on EnVision® Multilabel Plate Reader (Perkin Elmer; product number 2104-0010). The raw counts from the experiment are analyzed using Accelrys® Assay Explorer v3.3.
Z′ greater than 0.5 was used as passing quality control criteria for the plates.
The Z′ is defined as: 1−[3*SDPositive Control+3*SDNegative Control/Absolute(MeanPositive Control−MeanNegative Control)] wherein “SD” is standard deviation.
The % activity measured at each of the 8 test concentrations of the test compound was normalized to the on-plate positive control using the following formula: % activity=[(test compound response−DMSO response)/(positive control response−DMSO response)]*100
The maximum % activity achieved for the test compound at any tested concentration is presented in Table 1 along with the EC50 calculated using the following general sigmoidal curve with variable Hill slope equation (described as Model 42 in the Accelrys® Assay Explorer v3.3 software): y=(a−d)/(1+(x/c)^b)+d
General sigmoidal curve with concentration, response, top, bottom, EC50 and Hill slope.
This model describes a sigmoidal curve with an adjustable baseline, a. The equation can be used to fit curves where response is either increasing or decreasing with respect to the independent variable, “x”. • “x” is a concentration of drug under test. • “y” is the response. • “a” is the maximum response, and “d” is the minimum response • “c” is the inflection point (EC50) for the curve. That is, “y” is halfway between the lower and upper asymptotes when x=c. • “b” is the slope-factor or Hill coefficient. The sign of b is positive when the response increases with increasing dose and is negative when the response decreases with increasing dose (inhibition).

T1 sequence (P13569 with tags, fused parts or gaps DEL508-508): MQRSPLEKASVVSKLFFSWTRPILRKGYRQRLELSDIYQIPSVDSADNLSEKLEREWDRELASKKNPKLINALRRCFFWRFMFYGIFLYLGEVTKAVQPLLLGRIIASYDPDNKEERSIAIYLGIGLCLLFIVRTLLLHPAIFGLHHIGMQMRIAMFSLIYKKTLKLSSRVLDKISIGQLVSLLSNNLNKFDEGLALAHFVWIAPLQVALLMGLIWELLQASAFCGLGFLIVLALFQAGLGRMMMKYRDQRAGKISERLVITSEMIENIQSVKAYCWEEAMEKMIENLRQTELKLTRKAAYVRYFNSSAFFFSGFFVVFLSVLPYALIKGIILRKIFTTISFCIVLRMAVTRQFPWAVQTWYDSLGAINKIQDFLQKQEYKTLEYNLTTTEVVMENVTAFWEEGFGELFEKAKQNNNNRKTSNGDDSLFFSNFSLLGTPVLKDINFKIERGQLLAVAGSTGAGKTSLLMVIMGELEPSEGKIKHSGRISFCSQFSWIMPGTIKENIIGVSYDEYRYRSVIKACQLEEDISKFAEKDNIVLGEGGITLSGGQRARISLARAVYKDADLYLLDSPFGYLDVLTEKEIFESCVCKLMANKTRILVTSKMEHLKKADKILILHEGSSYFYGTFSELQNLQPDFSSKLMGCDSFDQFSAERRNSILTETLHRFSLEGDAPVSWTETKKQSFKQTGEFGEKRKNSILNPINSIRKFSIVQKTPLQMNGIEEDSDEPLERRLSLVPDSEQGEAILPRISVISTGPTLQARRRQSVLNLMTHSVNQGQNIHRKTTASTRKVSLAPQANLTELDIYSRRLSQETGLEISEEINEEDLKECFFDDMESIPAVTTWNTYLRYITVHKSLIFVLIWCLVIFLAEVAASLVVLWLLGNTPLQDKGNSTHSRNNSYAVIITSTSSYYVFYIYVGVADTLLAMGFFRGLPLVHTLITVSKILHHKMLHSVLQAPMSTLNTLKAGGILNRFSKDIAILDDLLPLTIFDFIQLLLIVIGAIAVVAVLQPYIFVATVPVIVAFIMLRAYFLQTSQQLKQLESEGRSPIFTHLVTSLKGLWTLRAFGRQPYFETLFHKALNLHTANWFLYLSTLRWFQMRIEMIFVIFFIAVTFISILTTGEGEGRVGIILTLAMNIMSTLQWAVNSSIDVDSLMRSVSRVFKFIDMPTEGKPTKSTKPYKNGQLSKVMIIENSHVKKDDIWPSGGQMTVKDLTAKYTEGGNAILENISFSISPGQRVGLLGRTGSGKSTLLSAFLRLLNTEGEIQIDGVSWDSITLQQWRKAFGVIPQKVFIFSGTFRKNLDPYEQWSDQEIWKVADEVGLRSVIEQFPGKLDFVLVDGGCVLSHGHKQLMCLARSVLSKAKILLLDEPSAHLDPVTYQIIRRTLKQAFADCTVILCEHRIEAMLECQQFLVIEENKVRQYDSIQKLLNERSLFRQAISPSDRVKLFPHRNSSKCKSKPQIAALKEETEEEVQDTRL

| SMILES | EC50 | Maximum % activity |
| --- | --- | --- |
| COc1ccc2c(c1)O[C@@H](c1ccc(C(=O)O)cc1)C[C@H]2NC(=O)C1(c2ccccc2)CC(F)(F)C1 [Example 72, 4-{(2R,4R)-4-[(3,3-difluoro-1-phenylcyclobutane-1-carbonyl)amino]-7-methoxy-3,4-dihydro-2H-1-benzopyran-2-yl}benzoic acid] | > 20000 nM | 1.4% |
| COc1ccc2c(c1)OC(c1ccc(OC)c(OC)c1)CC2NC(=O)C1(c2ccc(Cl)cc2)CC1 (stereo not drawn) [Example 21, 1-(4-chlorophenyl)-N-[2-(3,4-dimethoxyphenyl)-7-methoxy-3,4-dihydro-2H-1-benzopyran-4-yl]cyclopropane-1-carboxamide] | 1140 nM | 77.8% |
| COc1ccc2c(c1)O[C@@H](c1ccc(C(=O)O)cc1)C[C@H]2NC(=O)[C@@]1(C)CCc2cc(C)ccc21 (single isomer, unassigned) [Example 9] | 180 nM | 95.5% |
| COc1ccc2c(c1)O[C@@H](c1ccc(C(=O)O)cc1)C[C@H]2NC(=O)C1(c2ccccc2Br)CC1 [Example 89, 4-[(2R,4R)-4-{[1-(2-bromophenyl)cyclopropane-1-carbonyl]amino}-7-methoxy-3,4-dihydro-2H-1-benzopyran-2-yl]benzoic acid] | 750 nM | 42.0% |
| COc1ccc2c(c1)O[C@@H](c1ccc(C(=O)O)cc1)C[C@H]2NC(=O)C(C)(C)Oc1cccc(C(F)(F)F)c1 [Example 78, 4-[(2R,4R)-7-methoxy-4-{2-methyl-2-[3-(trifluoromethyl)phenoxy]propanamido}-3,4-dihydro-2H-1-benzopyran-2-yl]benzoic acid] | 2470 nM | 32.0% |
| COc1ccc2c(c1)O[C@@H](c1ccc(C(=O)O)cc1)C[C@H]2NC(=O)C1(C)CCc2cc(OC(F)(F)F)ccc21 (stereo partly drawn) [Example 68, 4-[(2R,4R)-7-methoxy-4-{[1-methyl-5-(trifluoromethoxy)-2,3-dihydro-1H-indene-1-carbonyl]amino}-3,4-dihydro-2H-1-benzopyran-2-yl]benzoic acid] | 1310 nM | 85.0% |
| COc1ccc(C2(C(=O)N[C@@H]3C[C@H](c4ccc(C(=O)O)cc4)Oc4cc(OC)ccc43)CC2)cc1 [Example 74, 4-[(2R,4R)-7-methoxy-4-{[1-(4-methoxyphenyl)cyclopropane-1-carbonyl]amino}-3,4-dihydro-2H-1-benzopyran-2-yl]benzoic acid] | 70 nM | 49.8% |
| COc1ccc2c(c1)O[C@@H](c1ccc(C(=O)O)cc1)C[C@H]2NC(=O)C1(c2ccc(OC)c(OC)c2)CCC1 [Example 116, 4-[(2R,4R)-4-{[1-(3,4-dimethoxyphenyl)cyclobutane-1-carbonyl]amino}-7-methoxy-3,4-dihydro-2H-1-benzopyran-2-yl]benzoic acid] | 3250 nM | 27.6% |
| COc1ccc2c(c1)O[C@@H](c1cccc(C(=O)O)c1)C[C@H]2NC(=O)C1(c2ccc(OC(F)(F)F)cc2)CC1 [Example 41, 3-[(2R,4R)-7-methoxy-4-({1-[4-(trifluoromethoxy)phenyl]cyclopropane-1-carbonyl}amino)-3,4-dihydro-2H-1-benzopyran-2-yl]benzoic acid] | 1670 nM | 62.2% |
| COc1ccc2c(c1)O[C@@H](c1ccc(C(=O)O)cc1)C[C@H]2NC(=O)C1(c2cccc(OC(F)(F)F)c2)CCC1 [Example 83, 4-[(2R,4R)-7-methoxy-4-({1-[3-(trifluoromethoxy)phenyl]cyclobutane-1-carbonyl}amino)-3,4-dihydro-2H-1-benzopyran-2-yl]benzoic acid] | 3170 nM | 51.0% |
| COC(=O)c1cccc([C@H]2C[C@@H](NC(=O)[C@]3(C)CCc4cc(Cl)ccc4O3)c3ccccc3O2)c1 [Example 63, methyl 3-[(2R,4R)-4-{[(2S)-6-chloro-2-methyl-3,4-dihydro-2H-1-benzopyran-2-carbonyl]amino}-3,4-dihydro-2H-1-benzopyran-2-yl]benzoate] | > 20000 nM | 5.1% |
| COC(=O)c1cccc([C@H]2C[C@@H](NC(=O)[C@]3(C)CCc4cc(OC)ccc43)c3ccccc3O2)c1 [Example 28, methyl 3-[(2R,4R)-4-{[(1R)-5-methoxy-1-methyl-2,3-dihydro-1H-indene-1-carbonyl]amino}-3,4-dihydro-2H-1-benzopyran-2-yl]benzoate] | 2490 nM | 21.2% |
| COC(=O)c1ccc([C@H]2C[C@@H](NC(=O)C3(C)CCc4cc(C)ccc43)c3ccc(OC)cc3O2)cc1 (stereo partly drawn) [Example 124, methyl 4-{(2R,4R)-4-[(1,5-dimethyl-2,3-dihydro-1H-indene-1-carbonyl)amino]-7-methoxy-3,4-dihydro-2H-1-benzopyran-2-yl}benzoate] | 460 nM | 87.7% |
| COc1ccc2c(c1)O[C@@H](c1cccc(C(=O)O)c1)C[C@H]2NC(=O)C1(C)CCc2cc(Cl)ccc21 (stereo partly drawn) [Example 36, 3-{(2R,4R)-4-[(5-chloro-1-methyl-2,3-dihydro-1H-indene-1-carbonyl)amino]-7-methoxy-3,4-dihydro-2H-1-benzopyran-2-yl}benzoic acid] | 670 nM | 31.4% |
| COc1ccc2c(c1)OC(c1ccc(OC)c(OC)c1)CC2NC(=O)C(C)(C)c1ccc(Cl)cc1 (stereo not drawn) [Example 22, 2-(4-chlorophenyl)-N-[2-(3,4-dimethoxyphenyl)-7-methoxy-3,4-dihydro-2H-1-benzopyran-4-yl]-2-methylpropanamide] | 990 nM | 56.6% |
| COc1ccc2c(c1)O[C@@H](c1ccc(C(=O)O)cc1)C[C@H]2NC(=O)C1(c2ccc(Cl)cc2)CCCC1 [Example 98, 4-[(2R,4R)-4-{[1-(4-chlorophenyl)cyclopentane-1-carbonyl]amino}-7-methoxy-3,4-dihydro-2H-1-benzopyran-2-yl]benzoic acid] | > 20000 nM | 13.0% |
| COc1ccc2c(c1)O[C@@H](c1cccc(C(=O)O)c1)C[C@H]2NC(=O)C(C)(C)c1ccc(OC(F)(F)F)cc1 [Example 40, 3-[(2R,4R)-7-methoxy-4-{2-methyl-2-[4-(trifluoromethoxy)phenyl]propanamido}-3,4-dihydro-2H-1-benzopyran-2-yl]benzoic acid] | 1700 nM | 81.0% |
| COc1ccc2c(c1)[C@@](C)(C(=O)N[C@@H]1C[C@H](c3cccc(C(=O)O)c3)Oc3ccccc31)CC2 [Example 47, 3-[(2R,4R)-4-{[(1S)-6-methoxy-1-methyl-2,3-dihydro-1H-indene-1-carbonyl]amino}-3,4-dihydro-2H-1-benzopyran-2-yl]benzoic acid] | 1060 nM | 38.2% |
| COc1ccc2c(c1)CC[C@@]2(C)C(=O)N[C@@H]1C[C@H](c2cccc(C(=O)O)c2)Oc2ccccc21 [Example 32, 3-[(2R,4R)-4-{[(1R)-5-methoxy-1-methyl-2,3-dihydro-1H-indene-1-carbonyl]amino}-3,4-dihydro-2H-1-benzopyran-2-yl]benzoic acid] | 1210 nM | 20.4% |
| COc1ccc2c(c1)O[C@@H](c1ccc(C(=O)O)cc1)C[C@H]2NC(=O)C1(c2cccc(Cl)c2)CC1 [Example 101, 4-[(2R,4R)-4-{[1-(3-chlorophenyl)cyclopropane-1-carbonyl]amino}-7-methoxy-3,4-dihydro-2H-1-benzopyran-2-yl]benzoic acid] | 660 nM | 46.0% |
| COc1ccc(C2(C(=O)N[C@@H]3C[C@H](c4ccc(C(=O)O)cc4)Oc4cc(OC)ccc43)CCCC2)cc1 [Example 114, 4-[(2R,4R)-7-methoxy-4-{[1-(4-methoxyphenyl)cyclopentane-1-carbonyl]amino}-3,4-dihydro-2H-1-benzopyran-2-yl]benzoic acid] | > 20000 nM | 2.2% |

— patent US10118916B2, “Modulators of cystic fibrosis transmembrane conductance regulator protein” (AbbVie S.à.r.l., priority 2016, dated 2018)
